One assay has as its target T1, TIM3 protein (Homo sapiens, UniProt Q8TDQ0).
T1 sequence (Q8TDQ0 22-301): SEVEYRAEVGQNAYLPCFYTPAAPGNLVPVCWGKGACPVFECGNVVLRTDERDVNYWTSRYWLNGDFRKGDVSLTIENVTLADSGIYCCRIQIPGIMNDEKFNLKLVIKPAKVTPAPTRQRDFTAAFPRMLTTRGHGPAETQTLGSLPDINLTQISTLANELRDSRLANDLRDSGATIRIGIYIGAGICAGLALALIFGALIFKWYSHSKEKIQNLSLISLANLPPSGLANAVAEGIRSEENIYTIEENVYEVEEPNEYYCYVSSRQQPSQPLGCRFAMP
Nature of the assay: SPR affinity of TIM3-targeting binding peptides to immobilized TIM3 protein. The settings on record: TIM3 sensor chip, dissociation rate. Here is the method: The binding properties of the TIM3-targeting binding peptides to TIM3 and their competition experiments with Galectin-9-bound TIM3 were identified by flow cytometry and surface plasmon resonance (SPROpenSPR, Nicoya, V3.01) detection.
SPR assay: Affinity identification between the TIM3-targeting binding peptides and TIM3 was performed by immobilizing TIM3 protein (50 μg/mL) on the surface of a nanogold sensor chip upon activation of EDC/NHS. The TIM3-targeting binding peptides were diluted with buffer (PBS, pH 7.4) to concentrations of […], 19.5 μM, 39 μM and 78 μM, respectively. The competitive binding ability of the TIM3-targeting binding peptides to the ligand was identified by immobilizing the Galectin-9 protein (25 μg/mL) on a sensor chip at a detection concentration of 100 μg/mL for the TIM3-targeting binding peptides, and at a concentration of the mixed sample of 100 μg/mL TIM3-targeting binding peptides and 10 μg/mL TIM3 protein. The detection sample was loaded at a flow rate of 20 μL/min for about 7 min according to the instrument instructions. The KD, ka and kd values were calculated and analyzed by Trace Drawer Evaluation (version 2.0) software.

The next assay relates to CD4+ T cells. The assay is described as follows: Mixed lymphocyte reaction (DCs + CD4+ T cells), cytokine ELISA. The class given is cell-based, human. The settings on record: MLR; for expression level of INF-γ: ELISA on day 5, vs control groups (P<0.01 or P<0.05). Here is the method:
Identification of the functional activity of TIM3-targeting binding peptides was performed by evaluating the levels of activation and proliferation of T cells, i.e., the levels of expression of IL-2 and IFN-γ cytokines. First, Dendritic Cells (DCs) and CD4+T cells were obtained by magnetic bead sorting, and then the levels of IFN-γ cytokines and IL-2 were detected by a Mixed Lymphocyte Reaction (MLR) experiment simulating close to human physiological environment and an ELISA experiment, to identify biological activities of the TIM3-targeting binding peptides.
Culture of Dendritic cells (DCs): Isolated dendritic cells (DCs) were cultured in Mo-DC differentiation medium (10^7 cells/10 mL medium), and 10 mL of the same medium was added to the cells after 3 days (the cells were cultured in the differentiation medium at 37° C., 5% CO2 and >95% humidity for 6 days). On day 7, DCs were resuspended in Mo-DC mature medium and cultured for further 3 days by addition of the Mo-DC differentiation medium. Matured DC and newly isolated T cells (DC and T cells from different donors) were mixed for mixed lymphocyte reaction. Approximately 1×10^4 DCs and 1×10^5 T cells per well were mixed and cultured in 200 μL RPMI-1640 medium with 10% FBS. To evaluate the activity (gradient action), competitive inhibition (P26 and ligand), synergistic effect (TIM3-targeting binding peptides and the PD-1 inhibitor Opdivo) of the binding peptides TIM3-targeting binding peptides, the corresponding concentrations of peptides, Opdivo, Galectin-9 were added to the corresponding wells to interact with the cells. The expression levels of IFN-γ (or IL-2) secreted in the cell supernatant were measured on day 5.
T cell activity were tested according to the instructions of the ELISA kit. Briefly, the capture antibody dilutions were coated on a 96-well plate overnight (24 hours) at room temperature at a concentration of 2 μg/mL in a volume of 100 μL. On the following day, the capture antibody solution was aspirated and the wells were washed three times with 300 μL wash buffer PBST (0.05% Tween®20, pH 7.2-7.4). Thereafter, the test wells were blocked with 300 μL of 1% BSA-PBS for 1 hour. After blocking, the test wells were washed in the same manner as above and 100 μL of the test samples or standards (in 1% BSA-PBS) were pipetted into each well for 2 hours. Thereafter, the detection antibody (125 ng/mL, 100 μL) was added to each well according to the instructions of the human IFN-γ/IL-2 Duo Set ELISA kit, and incubated for 2 hours. Then, HRP (100 μL, incubated for 20 minutes) and TMB (100 μL) were added. At the end of each step, each well was washed in the same manner as described above. After completion of the color development, the test wells were terminated with 12.5% H2SO4 (50 μL/well) and read on an ELISA plate reader at a wavelength of 450/570 nm. All experimental test wells were repeated.

Another assay concerns MC38-hPDL1 tumor. The assay is described as follows: In vivo anti-tumor growth in MC38-hPDL1 tumor-bearing mice humanized with TIM3. Details: species or system C57BL/6J mice transduced with the human TIM3 gene. The following applies: 21 days, intraperitoneal, P26 5 mg/kg QD, ATE 10 mg/kg twice a week. The text has this:
In this example, the anti-tumor growth effect of the TIM3-targeting binding peptides was farther examined in mice. The tumor inhibitory effect of the TIM3-targeting binding peptides on C57BL/6J MC38-hPDL1 tumor-bearing mice humanized with TIM3 was detected by the following experimental steps: 1. Inoculation of mice: […]-hPDL1 tumor cells (1×10^6 cells/mouse) were inoculated subcutaneously into C57BL/6J mice transduced with the human TIM3 gene. 2. Grouping: Mice were randomly divided into 4 groups with 7 mice per group when tumors reached 80 100 mm^3. 3. Administration: PBS (negative control), PD-L1 humanized antibody (positive control), polypeptides alone (experimental group) and polypeptides plus PD-L1 humanized antibody (synergistic effect group) were administered intraperitoneally to mice in each group, respectively. The amount of antibody used was 10 mg/kg twice a week. The amount of polypeptide was 5 mg/kg once daily. Tumor size and body weight of the mice were measured every 3 days. 4. Post-administration treatment: mice were euthanized 3 weeks after administration. Tumors were isolated, weighed, and photographed.

13 sequences from US20230095558A1, “IMMUNE CHECKPOINT TIM3-TARGETING BINDING PEPTIDE AND APPLICATION THEREOF” (Sparx Biotech (Jiangsu) Co., Ltd., priority 2020, published 2023) can be followed below.

No end group written: not given here.

With SQEVFAWTFSPRWTTAPKAL [K3], at TIM3 protein, the koff is given as 1.32×10^−2 S^−1. In addition, the “expression level of INF-γ” value in the assay with CD4+ T cells is “significantly increased”.

In the case of “TFLNSVPTYSYW (A TIM3-targeting binding peptide) [P1310, 12-peptide targeting TIM3]”, in the assay on CD4+ T cells, the “expression level of INF-γ” value was “significantly increased”.

Regarding ADFRVMADMSMY [P29, ADFRVMADMSMY], at TIM3 protein, the koff is on record as 7.47×10^−3 S^−1. Moreover, in the assay with CD4+ T cells, the “expression level of INF-γ” value is “significantly increased”.

Take HDAFPRPHLFRN [P1301, HDAFPRPHLFRN]: at TIM3 protein, the koff was 4.28×10^−3 S^−1. Also, the “expression level of INF-γ” value with CD4+ T cells is reported as “significantly increased”.

For ALWPSSSMSSTI [P1303, ALWPSSSMSSTI], the koff on TIM3 protein was 3.08×10^−3 S^−1. In the assay with CD4+ T cells, the “expression level of INF-γ” value is “significantly increased”.

Turning to SPFYYSGHQWVPHPRQAASY [K10], the koff at TIM3 protein is 2.30×10^−2 S^−1. For the same sequence, the “expression level of INF-γ” value in the assay on CD4+ T cells was “significantly increased”.

Take FTYAHPVSHRWESSVHVDQW [K2]: the koff on TIM3 protein is 1.03×10^−2 S^−1. Further, the “expression level of INF-γ” value in the assay with CD4+ T cells was “significantly increased”.

For the sequence GSWNTFRAQPTI [P24, GSWNTFRAQPTI], the koff on TIM3 protein is 1.69×10^−5 S^−1.

For the sequence “GLIPLTTMHIGK (A TIM3-targeting binding peptide) [P26, 12-peptide targeting TIM3]”, the “expression level of INF-γ” value in the assay with CD4+ T cells is reported as “significantly increased”. In addition, the “reversal of Galectin-9-mediated inhibition of CD4+ T cell activation (IFN-γ and IL-2 expression levels)” value in the assay on CD4+ T cells (P26 100 μg/mL, Galectin-9 5 μg/mL, ELISA) was “reversed”. For the same sequence, in the assay on MC38-hPDL1 tumor (compared to control group), the tumor volumes result is “tended to decrease”. Further, the “growth of the tumor (tumor weight)” value in the assay with MC38-hPDL1 tumor (vs control group P<0.05) is “inhibited”.

For the sequence “QNPPLENTVYQEPFWQHAVD (A TIM3-targeting binding peptide) [K7, 20-peptide targeting TIM3]”, the “expression level of INF-γ” value in the assay with CD4+ T cells is on record as “significantly increased”.

On to WQQNNPHLWDVFLGVPRTTE [K5], for which the koff on TIM3 protein was 1.60×10^−2 S^−1. Further, in the assay with CD4+ T cells, the “expression level of INF-γ” value is “significantly increased”.

Regarding SHDTRSPFTWGR [P1307, SHDTRSPFTWGR], the koff on TIM3 protein is recorded as 7.89×10^−3 S^−1.

“HYEADPYEAWYDAWDDIHTY (A TIM3-targeting binding peptide) [K1, 20-peptide targeting TIM3]”: the “expression level of INF-γ” value in the assay on CD4+ T cells is recorded as “significantly increased”.
